Marks after values point to notes of the source that are not given here.
What was measured:
SWV mice = assay: DTG-NTD susceptibility, embryo phenotyping on GD 9.5, SWV dams; type: in vivo, mouse
From the text: Breeding colonies and experimental mice were housed in Thoren micro-isolator cages with autoclaved corncob bedding and maintained on a 12-h light-dark cycle in climate-controlled AAALAC-accredited animal facilities at Creighton University. Mice were given ad libitum access to autoclaved water and pelleted irradiated rodent chow. For timed matings, nulliparous female mice were placed with a male overnight (1 male:2-3 females). The presence of a vaginal plug the next morning was considered GD 0.5. Plugged females were weighed, placed into a separate cage, and randomly assigned to a treatment group. All animal procedures were performed in accordance with the Public Health Service (PHS) policy on Humane Care and Use of Laboratory Animals and approved by the Creighton University Institutional Animal Care and Use Committee (IACUC).
Dolutegravir (CAS 1051375-16-6, GSK1349572) was purchased from MedKoo Biosciences (Morrisville, NC). Pregnant mice were dosed with vehicle (dimethylsulfoxide: Solutol®: 50 mM N-methylglucamine in 3% mannitol [1:1:8, v:w:v]) ([Moss et al., 2015]) or DTG (500 mg/kg or 750 mg/kg) by daily oral gavage beginning on GD 0.5 and continuing until the day of sacrifice (GD 9.5). All treatments were administered in a volume of 0.1 mL/10 g bodyweight (bwt).
The SWV and LM/Bc breeding colonies have been maintained on Envigo Rodent Chow #8904 (a soy protein-based irradiated diet) for >20 years. C3H/HeJ and C57BL/6J mice (6–10 weeks old) were immediately placed on Envigo #8904 upon arrival at Creighton University and were maintained on this diet for a minimum of 1 month prior to analysis of basal plasma and urine cations. The National Research Council (NRC) estimate for the minimum Mg^2+ requirement in adult mice is […] of diet (0.05%). Magnesium in standard rodent diets ranges between […]; the Envigo #8904 soy diet contains .3% Mg^2+ by weight ([…] the NRC requirement) and was therefore considered a ‘high’ Mg^2+ diet. Sources of Mg^2+ in the soy diet include magnesium oxide (∼20%) and Mg^2+ found naturally in grain ingredients (∼80%); it was therefore not possible to remove Mg^2+ to create a soy-based version that was Mg^2+ deficient. To test the hypothesis that low maternal plasma Mg^2+ prior to conception would increase susceptibility to DTG-induced NTDs, it was necessary to switch to casein-based purified ingredient diets with defined levels of Mg^2+ added back. The following casein-based purified ingredient diets were selected as experimental diets: TD.120,574 high Mg^2+ diet (.3% Mg^2+ oxide added to match the .3% high Mg^2+ soy-based diet); TD.98341 control Mg^2+ diet with 0.05% Mg oxide added back to match the NRC requirement; and TD.93106 Mg^2+-deficient diet (<.003%, no Mg^2+ added back). The purified casein diets met or exceeded the NRC requirements for all other minerals and vitamins, including folic acid (Supplementary Table S1: Diet Comparison). Thus, the 4 experimental diets were as follows: 1) high Mg^2+ (.3%) soy diet; 2) high Mg^2+ ([…]) casein diet; 3) control Mg^2+ (.05%) casein diet; and 4) deficient Mg^2+ (<.003%) casein diet. […] Our initial DTG teratology studies were performed in mice on the high Mg^2+ soy diet. However, our objective in the second set of experiments was to reduce pre-conception plasma Mg^2+ levels prior to DTG exposure. To accomplish this objective, weaned female mice were placed on either the high Mg^2+ casein diet or one of the 2 casein-based experimental diets with reduced Mg^2+ (control or deficient) for a minimum of 2 weeks. After this minimum period of acclimation to the experimental casein-based diets, blood and urine samples were collected for Inductively Coupled Plasma Mass Spectrometry (ICP-MS) determination of Mg^2+ (and other cations).
Pregnant dams were anesthetized with isoflurane and sacrificed by cervical dislocation on GD 9.5. […]

[1] = ref Zash et al., cited from earlier work
[2] = Mg2+-deficient (<0.003%) casein diet, DTG750
[3] = high Mg2+ (0.3%) soy diet, DTG 750 mg/kg/d oral GD 0.5-GD 9.5, average % (SD)
[4] = high Mg2+ (0.3%) soy diet, DTG 750 mg/kg/d oral GD 0.5-GD 9.5, mean (SD)
[5] = high Mg2+ (0.3%) soy diet, DTG 750 mg/kg/d oral GD 0.5-GD 9.5, mean (SD) per litter

Compound: C[C@@H]1CCO[C@H]2Cn3cc(C(=O)NCc4ccc(F)cc4F)c(=O)c(O)c3C(=O)N12 [DTG, Dolutegravir]
- NTD-affected litters (SWV mice; [2]): 75%
- NTD-affected litters / litters examined (SWV mice; [2]): 6/8
- NTDs per affected litter (SWV mice; [2]): 1-4
- total NTDs (SWV mice; [2]): 11
- Affected litters % (SWV mice; high Mg2+ (0.3%) soy diet, DTG 750 mg/kg/d oral GD 0.5-GD 9.5): 7.7%
- Dev delay/implants, index value (SWV mice; [3]): 2.0% (3.19)
- NTDs/embryos, index value (SWV mice; [3]): 1.8% (6.40)
- NTDs/implants, index value (SWV mice; [3]): 1.6% (5.94)
- Resorptions/implants, index value (SWV mice; [3]): 5.0% (7.62)
- Implants per litter (SWV mice; [4]): 13.15 (2.12)^**
- Resorptions per litter (SWV mice; [4]): 0.62 (0.87)
- Dev. delayed (SWV mice; [5]): 0.31 (0.48)
- NTDs (SWV mice; [5]): 0.23 (0.83)
- Total viable embryos (SWV mice; [5]): 12.54 (2.37)^**
- NTD-affected litters / litters examined (SWV mice; high Mg2+ soy diet, DTG750): 1/13
- total pups with exencephaly (SWV mice; high Mg2+ soy diet, DTG750): 3
- NTD prevalence ([1]; 4/426 infants exposed to DTG from conception, 2018): .94%
- prevalence of DTG-NTDs ([1]; follow-up study, 5/1683 deliveries, 2019): .30%
- increase in the prevalence of NTDs ([1]; women who began DTG prior to conception, 2018): 9 fold

From PMC10292217, “Gene-nutrient interactions that impact magnesium homeostasis increase risk for neural tube defects in mice exposed to dolutegravir” (Frontiers in Cell and Developmental Biology, 2023)
